In PubChem BioAssay AID624003 (Vanderbilt Specialized Chemistry Center, 2012):

Target: Phospholipase D1 (Homo sapiens) + Phospholipase D1 (Homo sapiens) (UniProt Q13393+Q13393)
Assay: cellular phospholipase D1 inhibitors, IC50 – cell-based, Lib32, assay 2A, dose response (AID 624003)
Conditions: cellular PLD1 activity assay

Phospholipase D1 (Homo sapiens) + Phospholipase D1 (Homo sapiens), sequence (Q13393 whole entry, looked up): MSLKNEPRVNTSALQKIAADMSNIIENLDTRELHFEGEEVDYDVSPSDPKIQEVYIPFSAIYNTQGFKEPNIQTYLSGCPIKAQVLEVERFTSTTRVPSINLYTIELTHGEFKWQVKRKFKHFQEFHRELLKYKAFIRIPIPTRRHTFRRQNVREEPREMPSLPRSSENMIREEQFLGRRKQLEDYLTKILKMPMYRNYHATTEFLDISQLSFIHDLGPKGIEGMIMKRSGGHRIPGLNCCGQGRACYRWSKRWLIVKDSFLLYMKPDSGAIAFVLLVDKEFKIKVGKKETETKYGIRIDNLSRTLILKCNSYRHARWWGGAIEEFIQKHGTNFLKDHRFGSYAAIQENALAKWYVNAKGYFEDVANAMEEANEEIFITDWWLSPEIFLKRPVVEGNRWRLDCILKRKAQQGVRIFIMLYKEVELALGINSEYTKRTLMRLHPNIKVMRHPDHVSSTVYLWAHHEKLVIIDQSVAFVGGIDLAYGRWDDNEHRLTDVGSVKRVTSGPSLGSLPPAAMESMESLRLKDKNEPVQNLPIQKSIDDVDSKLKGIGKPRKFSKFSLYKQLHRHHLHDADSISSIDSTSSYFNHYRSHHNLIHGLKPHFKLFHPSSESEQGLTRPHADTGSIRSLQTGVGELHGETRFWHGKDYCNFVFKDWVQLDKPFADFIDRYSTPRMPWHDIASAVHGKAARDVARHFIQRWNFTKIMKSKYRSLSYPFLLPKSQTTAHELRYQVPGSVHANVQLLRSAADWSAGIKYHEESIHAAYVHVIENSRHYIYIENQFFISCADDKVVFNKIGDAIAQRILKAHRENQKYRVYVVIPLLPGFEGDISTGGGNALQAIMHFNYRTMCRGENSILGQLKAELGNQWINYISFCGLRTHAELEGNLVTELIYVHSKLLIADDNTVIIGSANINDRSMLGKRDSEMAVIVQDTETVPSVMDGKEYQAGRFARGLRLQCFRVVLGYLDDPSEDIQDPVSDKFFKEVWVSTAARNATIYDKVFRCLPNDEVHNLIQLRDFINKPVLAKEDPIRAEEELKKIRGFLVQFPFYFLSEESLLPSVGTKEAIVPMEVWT
Phospholipase D1 (Homo sapiens) + Phospholipase D1 (Homo sapiens), sequence (Q13393 whole entry, looked up): as above

Row | SMILES | IC50 [nM]
1 | COc1cc(C(=O)NCCN2CCC3(CC2)C(=O)NCN3c2cccc(F)c2)cc(OC)c1OC | 4320
2 | C[C@@H](CN1CCC2(CC1)C(=O)NCN2c1cccc(F)c1)NC(=O)c1ccc(F)cc1F | 136
3 | C[C@@H](CN1CCC2(CC1)C(=O)NCN2c1cccc(F)c1)NC(=O)c1ccc(F)cc1 | 20
4 | COc1cc(C(=O)N[C@@H](C)CN2CCC3(CC2)C(=O)NCN3c2cccc(F)c2)cc(OC)c1OC | 22
5 | C[C@@H](CN1CCC2(CC1)C(=O)NCN2c1cccc(F)c1)NC(=O)c1cccc([N+](=O)[O-])c1 | 122
6 | C[C@@H](CN1CCC2(CC1)C(=O)NCN2c1cccc(F)c1)NC(=O)c1cccc(F)c1 | 73
7 | O=C(NCCN1CCC2(CC1)C(=O)NCN2c1cccc(F)c1)c1ccc(Br)cc1 | 1540
8 | C[C@@H](CN1CCC2(CC1)C(=O)NCN2c1cccc(F)c1)NC(=O)c1ccc(F)c(F)c1 | 86
